# Data taken from patent US10189826B2, “Heterocyclic compounds and methods of use” (Medivation Technologies LLC, priority 2015, dated 2019).
# Like-named read-outs stand apart in the source and are kept apart here.
# Tests used:
# [1] = system: SREBP-2 transcriptional activity (SREBP2 cleavage) in HepG2_LSSprom cells; assay: Luciferase reporter driven by a SREBP-2 specific promoter in HepG2_LSSprom cells; type: cell-based
# Procedure: Dose response effects were measured of Compounds on the transcriptional activity of a Luciferase reporter driven by a SREBP-2 specific promoter in HepG2_LSSprom cells.
# (§1) HepG2_LSSprom cells (SwitchGear Genomics, cat# C711010L) were cultured in DMEM with 10% of fetal bovine serum (FBS), supplemented with Puromycin (1 μg/mL), 1% Penicillin/Streptomycin (Pen-Strep), 37° C., humidified, 95% air and 5% CO2. Culture media was refreshed every 2 or 3 days. Cells were used between passage number 6-12.
# For luminescence assays, cells were plated out at 20,000 cells/well in white 96 well plates in DMEM plus 10% FBS and 1% Pen-Strep without puromycin. After 1 day, cells were treated with Compound by diluting the drug in culture medium without FBS to a final concentration of 0.625, 1.25, 2.5, 3.75, 5 and 10 μM. Drug was prepared by dilutions of 10 mM stock aliquots. As control was used culture medium without FBS plus DMSO. Treatments with Compound were maintained for 6 h, or 24 h, until the luciferase assay was carried out.
# After 6 h of treatments with Compound, the luciferase assay was performed. Briefly, the assay solution (buffer+substrate) was prepare just prior to use. To each well 100 μL of assay solution was added. The 96-well plate was then gently mix for 2 min and incubated for 30 min at RT protected from light. The luminescence was read using a Synergy 4 (Biotek) equipment recording luminescence with sensibility set up at 150.
# (§2) Five independent experiments were carried out for both luciferase and cytotoxicity assay. In each experiment, three wells were use per condition and the results are represented as means±SEM.
# For luciferase assay, Vehicle (no treatment) was taken as 100% of luciferase activity. This value represents the SREBP-2 transcriptional activity for the vehicle condition and was taken as 100% of SREBP-2 cleaved. The percentage for each treatment was calculated normalizing against the vehicle control. The graphics were made using the GraphPad Prism ver. 6.05 software. Half of maximal inhibitory concentration (IC50) of the effect of Compound on SREBP was obtain by nonlinear fit regression of mean normalized values vs. Compound concentration using the log(inhibitor) vs. response−Variable slope (four parameters) tool.
# [2] = Cytotoxicity assay (LDH release) in HepG2_LSSprom cells; type: cell-based; conditions: human, HepG2 LSSprom cells, LDH release; for IC50 at 24 h: 24 h treatment; for IC50 at 6 h: 6 h treatment
# Procedure: as §1
# For cytotoxicity assays, cells were plated out at 20,000 cells/well in transparent 96 well plates in DMEM plus 10% FBS and 1% Pen-Strep without puromycin. After 1 day, cells were treated with Compound by diluting in culture medium without FBS to a final concentration of 0.625, 1.25, 2.5, 3.75, 5 and 10 μM. Compound was prepared by dilutions of 10 mM stock aliquots. As a negative control culture medium was used without FBS plus DMSO. As maximum LDH release control (Lysis control) a lysis buffer provided by the kit manufacturer was used. Treatments with Compound were maintained for 6 h, or 24 h, in cell culture medium without serum until the cytotoxicity assay was started.
# The cytotoxicity assay was performed according to the manufacturer's instructions. As maximum LDH release control (Lysis control) 3 wells per plate were treated with 10 μL of lysis buffer 45 min before the treatment was over. Briefly, after the 6 h, or 24 h, of treatment, 50 μL of media from each well was transferred to a new 96-well plate. To the transferred media, 50 μL of reconstituted substrate mix was added. The plates were covered from light and incubated at RT for 10 min. Then, 50 μL of stop solution was added to each well. The plates were then read using a Synergy 4 (Biotek) equipment recording the absorbance at 490 nm.
# as §2
# For cytotoxicity assay, Lysis control was taken as 100%/o of LDH release. The vehicle values were taken as basal LDH release and were subtracted to all the treatments (including vehicle itself) having this value as 0% of LDH release. The LDH release for the treatments was calculated respect to the 100% of LDH release of Lysis control normalized against vehicle. All the negatives values were taken as 0% of cytotoxicity. The graphics were made using the Graph Prism ver. 6.05 software.
# [3] = 24 h, 24 h treatment, HepG2_LSSprom cells, read-out: SREBP2 Cleavage (IC50 μM) 24 h
# [4] = 6 h, 6 h treatment, HepG2_LSSprom cells, read-out: SREBP2 Cleavage (IC50 μM) 6 h
SMILES,"IC50 [1, 3] [µM]",IC50 at 24 h [2] [µM],"IC50 [1, 4] [µM]",other results
"CC(C)(C)OC(=O)NC1CCCN(C(=O)c2ccc(-c3csc(-c4ccnc(C(C)(C)C)c4)c3)c(Cl)c2)C1 (racemic) [Compound 19, tert-butyl N-(1-{4-[5-(2-tert-butylpyridin-4-yl)thiophen-3-yl]-3-chlorobenzoyl}piperidin-3-yl)carbamate]",0.25,> 3,,
"CC(C)(C)c1cc(-c2cc(-c3ccc(C(=O)N4CCCC(N)C4)cc3Cl)cs2)ccn1 (racemic) [Compound 21, 1-{4-[5-(2-tert-butylpyridin-4-yl)thiophen-3-yl]-3-chlorobenzoyl}piperidin-3-amine]",> 1,> 3,,
"CC(C)(C)c1cc(-c2cc(-c3ccc(C(=O)N4CCCC(NS(C)(=O)=O)C4)cc3Cl)cs2)ccn1 (racemic) [Compound 31, N-(1-{4-[5-(2-tert-butylpyridin-4-yl)thiophen-3-yl]-3-chlorobenzoyl}piperidin-3-yl)methanesulfonamide]",0.99,> 10,,
"CC(=O)NC1CCCN(C(=O)c2ccc(-c3csc(-c4ccnc(C(C)(C)C)c4)c3)c(Cl)c2)C1 (racemic) [Compound 32, N-[1-[4-[5-(2-tert-butyl-4-pyridyl)-3-thienyl]-3-chloro-benzoyl]-3-piperidyl]acetamide]",,> 10,,"IC50 ([1]; 24 h, read-out: SREBP2 Cleavage (IC50 μM) 24 h): 0.81 µM"
"CC(C)(C)c1cc(-c2cc(-c3ccc(C(=O)N4CCCC(N5CCCC5=O)C4)cc3Cl)cs2)ccn1 (racemic) [Compound 34, 1-(1-{4-[5-(2-tert-butylpyridin-4-yl)thiophen-3-yl]-3-chlorobenzoyl}piperidin-3-yl) pyrrolidin-2-one]",0.85,> 10,,
"CC(C)(C)c1cc(-c2cc(-c3ccc(C(=O)N4CCCC(N5CCCS5(=O)=O)C4)cc3Cl)cs2)ccn1 (racemic) [Compound 36, 2-(1-{4-[5-(2-tert-butylpyridin-4-yl)thiophen-3-yl]-3-chlorobenzoyl}piperidin-3-yl)-1λ^6,2-thiazolidine-1,1-dione]",0.49,> 10,,
"CC1(N)CCCN(C(=O)c2ccc(-c3cc(-c4ccnc(C(C)(C)C)c4)cs3)c(Cl)c2)C1 (single isomer, unassigned) [Compound 95a]",,> 10,,"IC50 ([1]; 24 h treatment, HepG2_LSSprom cells, read-out: SREBP2 Cleavage (IC50 μM) 24 h): 0.26 µM"
"CC(C)(C)c1cc(-c2cc(-c3ccc(C(=O)N4CCNC(=O)C4)cc3Cl)cs2)ccn1 [Compound 7, 4-{4-[5-(2-tert-butylpyridin-4-yl)thiophen-3-yl]-3-chlorobenzoyl}piperazin-2-one]",> 1,> 3,,
"CC(C)(C)c1cc(-c2cc(-c3ccc(C(=O)NC4CCC4)cc3Cl)cs2)ccn1 [Compound 8, 4-[5-(2-tert-butylpyridin-4-yl)thiophen-3-yl]-3-chloro-N-cyclobutylbenzamide]",> 3,> 3,,
"CN1CCN(C(=O)c2ccc(-c3csc(-c4ccnc(C(C)(C)C)c4)c3)c(Cl)c2)CC1 [Compound 10, 1-{4-[5-(2-tert-butylpyridin-4-yl)thiophen-3-yl]-3-chlorobenzoyl}-4-methylpiperazine]",> 3,,,
"CC(C)(C)c1cc(-c2cc(-c3ccc(C(=O)N4CCCCC4)cc3Cl)cs2)ccn1 [Compound 11, 2-tert-butyl-4-{4-[2-chloro-4-(piperidine-1-carbonyl)phenyl]thiophen-2-yl}pyridine]",0.3,,< 1,IC50 at 6 h [2]: > 10 µM
"CC(C)(C)c1cc(-c2cc(-c3ccc(C(=O)N4CCC(F)(F)C4)cc3Cl)cs2)ccn1 [Compound 12, 2-tert-butyl-4-{4-[2-chloro-4-(3,3-difluoropyrrolidine-1-carbonyl)phenyl]thiophen-2-yl}pyridine]",0.5,,> 10,IC50 at 6 h [2]: > 10 µM
"CC(C)(C)c1cc(-c2cc(-c3ccc(C(=O)N4CCC(F)(F)CC4)cc3Cl)cs2)ccn1 [Compound 13, 2-tert-butyl-4-{4-[2-chloro-4-(4,4-difluoropiperidine-1-carbonyl)phenyl]thiophen-2-yl}pyridine]",0.54,,> 10,IC50 at 6 h [2]: > 10 µM
"CC(C)(C)c1cc(-c2cc(-c3ccc(C(=O)NC4CC4)cc3Cl)cs2)ccn1 [Compound 14, 4-[5-(2-tert-butylpyridin-4-yl)thiophen-3-yl]-3-chloro-N-cyclopropylbenzamide]",,,3.17,
"CC(C)(C)NC(=O)c1ccc(-c2csc(-c3ccnc(C(C)(C)C)c3)c2)c(Cl)c1 [Compound 15, N-tert-butyl-4-[5-(2-tert-butylpyridin-4-yl)thiophen-3-yl]-3-chlorobenzamide]",,,> 5,
"Cc1sc(-c2ccnc(C(C)(C)C)c2)cc1-c1ccc(C(=O)N2CCCCC2)cc1Cl [Compound 16, 2-tert-butyl-4-{4-[2-chloro-4-(piperidine-1-carbonyl)phenyl]-5-methylthiophen-2-yl}pyridine]",0.81,> 3,,
"O=C(c1ccc(-c2csc(-c3ccnc(N4CCCCC4)c3)n2)c(Cl)c1)N1CCOCC1 [Compound 17, 4-(3-chloro-4-{2-[2-(piperidin-1-yl)pyridin-4-yl]-1,3-thiazol-4-yl}benzoyl) morpholine]",> 3,,> 3,
"CC(O)CNC(=O)c1ccc(-c2csc(-c3ccnc(N4CCCCC4)c3)n2)c(Cl)c1 (stereo not drawn) [Compound 18, 3-chloro-N-(2-hydroxypropyl)-4-{2-[2-(piperidin-1-yl)pyridin-4-yl]-1,3-thiazol-4-yl}benzamide]",> 3,,> 3,
"CC(C)(C)OC(=O)N[C@@H]1CCCN(C(=O)c2ccc(-c3csc(-c4ccnc(C(C)(C)C)c4)c3)c(Cl)c2)C1 [Compound 19a, tert-butyl (R)-(1-(4-(5-(2-(tert-butyl)pyridin-4-yl)thiophen-3-yl)-3-chlorobenzoyl)piperidin-3-yl)carbamate]",0.069,> 10,,
"CC(C)(C)OC(=O)N[C@H]1CCCN(C(=O)c2ccc(-c3csc(-c4ccnc(C(C)(C)C)c4)c3)c(Cl)c2)C1 [Compound 19b, tert-butyl (S)-(1-(4-(5-(2-(tert-butyl)pyridin-4-yl)thiophen-3-yl)-3-chlorobenzoyl)piperidin-3-yl)carbamate]",0.22,> 10,,
"CC(C)(C)c1cc(-c2cc(-c3ccc(C(=O)N4CCS(=O)(=O)CC4)cc3Cl)cs2)ccn1 [Compound 20, 4-{4-[5-(2-tert-butylpyridin-4-yl)thiophen-3-yl]-3-chlorobenzoyl}-1λ^6,4-thiomorpholine-1,1-dione]",> 3,,,
"CC(C)(C)c1cc(-c2cc(-c3ccc(C(=O)N4CCC[C@@H](N)C4)cc3Cl)cs2)ccn1 [Compound 21a, (R)-(3-aminopiperidin-1-yl)(4-(5-(2-(tert-butyl)pyridin-4-yl)thiophen-3-yl)-3-chlorophenyl)methanone]",0.71,> 10,,
"CC(C)(C)c1cc(-c2cc(-c3ccc(C(=O)N4CCC[C@H](N)C4)cc3Cl)cs2)ccn1 [Compound 21b, (S)-(3-aminopiperidin-1-yl)(4-(5-(2-(tert-butyl)pyridin-4-yl)thiophen-3-yl)-3-chlorophenyl)methanone]",> 3,> 10,,
